In series [1] the test system is human skin. As to conditions: cream containing the compound applied, Fragrance Journal 1997; cited from earlier work.
For series [2] the following is noted: rat, J.Pharmacobio-Dyn., 13, 688, 1990; cited from earlier work.
For series [3], the system named is guinea pig skin. As to conditions: shaved back, external application, Fragrance Journal 1997; cited from earlier work.
Series [4] relates to human skin keratinocytes HaCaT. Briefly: Concentration of intracellular ascorbic acid in human skin keratinocytes. The series is classed as cell-based. As to conditions: compared with 2-O-(α-D-glucopyranosyl)ascorbic acid and ascorbic acid; FIG. 2. The protocol: At 3 to 24 hours after addition, a medium is removed, rinsed twice with ice-cooled PBS, and a cell sheet is peeled with trypsin to make single cell state. This is suspended in PBS containing 50 μM dithiothreitol (DTT), and rinsed three times by centrifugation. The cell suspension is disrupted with a potter-type teflon (registered trademark) homogenizer, and then frozen and thawed twice. […] SHODEX® ODSpak (manufactured by SHOWA DENKO K.K., 4.6×150 mm) , mobile phase: 0.1 M KH2PO4-H3PO4 (pH 2.35)-0.1 mM EDTA-2Na, flow rate: 1.5 mL/min).

Series [5] deals with keratinocytes (HaCaT) derived from human skin epidermis. Put plainly: Protective effect on cell death of keratinocytes (HaCaT) by UVB irradiation (WST-1 cell survival rate). The series is classed as cell-based. The settings on record: same concentration, compared with ascorbic acid or 2-O-(α-D-glucopyranosyl)ascorbic acid; FIG. 1. How it is done:
Human skin keratinocytes HaCaT (cell line gifted by Dr. Fusenig of Heidelberg University) was seeded to 10% bovine fetal serum (FBS)-containing Dulbecco modified Eagle medium (DMEM) at 10,000 cells/well in a 24-well plate, and after 18 hours, 35 millijoule/square centimeter (mJ/cm^2) of UBV (maximum wavelength 312 nm) was irradiated. Two hours before the irradiation, 20 to 100 μM of 2-O-(β-D-glucopyranosyl)ascorbic acid was added, and such ascorbic acid was removed immediately before the irradiation and then rinsed. Irradiation was performed in PBS in the absence of a drug, and after irradiation, culturing was continued in a FBS 10%-containing DMEM medium, and 24 hours after irradiation, a cell survival rate was investigated by a method for measuring mitochondrion dehydrogenase activity with the use of 2-(4-iodophenyl)-3-(4-nitrophenyl)-5-(2,4-disulfophenyl)-2H-tetrazolium monosodium salt (WST-1). Similarly, as Comparative Example, 2-O-(α-D-glucopyranosyl) ascorbic acid and ascorbic acid were studied, and the results are also shown in FIG. 1.
In general terms: Tetrazolium dyes change colour on reduction, which living cells bring about.

Series [6] relates to human isolated skin piece. The settings on record: female, 5 h, 100 mM, pH 7.25.
The nature of series [7]: Pharmacokinetics at oral ingestion by a rat: intact form in blood. The class given is in vivo.
Series [8] concerns normal human dermal fibroblasts (NHDF). Put plainly: Collagen synthesis of normal human dermal fibroblasts (3H-proline incorporation, collagenase-sensitive). The class given is cell-based. The settings on record: compared with 2-O-(α-D-glucopyranosyl)ascorbic acid or ascorbic acid; FIG. 3. How it is done: Normal human dermal fibroblasts NHDF are seeded in a dish having a diameter of 100 millimeter at 370,000 cells. […] After additional 1 hour, 0.12 mL (120 μCi) of L-(2,3-^3H) proline is added, followed by culturing for 48 hours. After culturing, the medium is removed, and a cell sheet is rinsed with PBS four times. Then, cells are peeled with trypsin, cells are lysed with an alkali, and neutralized to obtain an intracellular protein. The protein is subjected to collagen degradation with collagenase of Clostridium to obtain a protein fraction, and radioactivity of the fraction is measured with a liquid scintillation counter using […]. Separately, radioactivity of an intracellular protein fraction which has not been treated with collagenase is similarly measured with a liquid scintillation counter. A difference between respective radioactivities obtained is adopted as collagen synthesis activity.

Series [9] deals with burn patient. As to conditions: applied, Japanese Cosmetic Science Society 1998; cited from earlier work.
Series [10] concerns pig skin. The settings on record: 10% aqueous solution, pre-administration for 3 days to one week, Br. J. Dermatol. 1992; cited from earlier work.

Each structure is given as a SMILES string. Like-named read-outs stand apart in the source and are kept apart here.

Results on four molecules are retold here after patent US7781409B2, “Composition for external use” (Suntory Holdings Limited, priority 2003, dated 2010).

As for `O=C1O[C@H]([C@@H](O)CO)C(O)=C1O[C@H]1O[C@H](CO)[C@@H](O)[C@H](O)[C@H]1O` [2-O-(α-D-glucopyranosyl)ascorbic acid], the “Pigmentation due to ultraviolet-ray irradiation” value in series [1] is recorded as “suppressed”. The “Intact form in blood after oral ingestion” value in [2] is given as “not detected as an intact form in blood”. For the same molecule, the “Inducement of skin inflammation due to UVB irradiation” value in [3] was “suppressed”.
As for `O=C1O[C@H]([C@@H](O)CO)C(O)=C1O[C@@H]1O[C@H](CO)[C@@H](O)[C@H](O)[C@H]1O` [AβG, 2-O-(β-D-glucopyranosyl)ascorbic acid], in series [4], the “Concentration of intracellular ascorbic acid in human skin keratinocytes” value is recorded as “maintained at a highest concentration for a longest term”. For the same molecule, in series [5], the “Suppression of cell death of keratinocytes (HaCaT) due to UVB irradiation” value is recorded as “clearly suppressed more strongly cell death”. Moreover, in [6], the “Ratio (%) of reduced form of vitamin C occupied in total vitamin C in skin, Dermis” value turned out to be 25%; the “Ratio (%) of reduced form of vitamin C occupied in total vitamin C in skin, Epidermis” value is 67%; the “Total vitamin C in skin, Dermis” value turned out to be 3 nmol/g tissue; the “Total vitamin C in skin, Epidermis” value is 15 nmol/g tissue. Besides, in series [6], the “Uptake amount of AβG into skin piece, Dermis” value was found to be 500 and the “Uptake amount of AβG into skin piece, Epidermis” value is 3,400. In [7], the “Intact form in blood after oral ingestion” value is reported as “detected in blood”. Also, the “Collagen synthesis by normal human dermal fibroblasts (NHDF)” value in series [8] is on record as “has higher activity”.
As for `O=C1O[C@H]([C@@H](O)CO)C(O)=C1OP(=O)(O)O` [ascorbic acid 2-phosphate], the Cure of burn result in series [9] was “cured without scar”.
As for `O=C1O[C@H]([C@@H](O)CO)C(O)=C1O` [ascorbic acid], the Ultraviolet-ray disorder result in series [10] was “ultraviolet-ray disorder can be alleviated”. Also, the “Inducement of skin inflammation due to UVB irradiation” value in [3] is “suppressed”.
